Test results as given in patent US20040242650A1, “Extended dosing regimen” (priority 2003, published 2004).
Marks after values point to notes of the source that are not given here.

Assays:
[1] = test system: Calu-6 lung subcutaneous flank xenografts; assay: Calu-6 flank xenograft model; type: in vivo, male nude mice; settings: for Tumor Volume Day 38: mean ± SEM; for % ILS: median, time to 1 cc vs vehicle; for % T/C Day 38: treated vs vehicle
Method: (§1) Efficacy of N-[2-[(4-hydroxyphenyl)amino]-3-pyridyl]-4-methoxybenzenesulfonamide was tested in Calu-6 NSCL, MDA-MB-468 breast and HT-29 colon carcinoma xenografts grown in nude mice. The objectives were determination of the efficacy of N-[2-[(4-hydroxyphenyl)amino]-3-pyridyl]-4-methoxybenzenesulfonamide as a single agent and in combination with cisplatin in the Calu-6 NSCL flank xenograft model; determination the efficacy of N-[2-[(4-hydroxyphenyl)amino]-3-pyridyl]-4-methoxybenzenesulfonamide as a single agent and in combination with docetaxel in the MDA-MB 468 breast flank xenograft model; determination of the efficacy of N-[2-[(4-hydroxyphenyl)amino]-3-pyridyl]-4-methoxybenzenesulfonamide as a single agent and in combination with 5-FU in the HT-29 colon flank xenograft model; and comparison the efficacy of N-[2-[(4-hydroxyphenyl)amino]-3-pyridyl]-4-methoxybenzenesulfonamide administered on 2 different schedules (q.d. vs b.i.d.) in the Calu-6 and HT-29 xenogaft model.
(§2) Following inoculation of tumor cells, tumors were passaged three times in mice before using the fragments to generate single cell suspensions. Multiple animals were used as donors. Single cell suspensions were generated by homogenizing the minced tumor tissue in RPMI 1640 media. Cell suspensions were washed three times to remove debris and other foreign materials. Viable cells were counted by trypan blue exclusion technique using a hemocytometer. Mice were injected subcutaneously with 0.5 ml of the cell suspension containing 1×10^6 cells.
Tumor cells were inoculated s.c. into male nude mice on day 0. On day 10, mice bearing established tumors were size matched at ˜233 mm^3 and placed into the following groups:
(§3) N-[2-[(4-hydroxyphenyl)amino]-3-pyridyl]-4-methoxybenzenesulfonamide—100, and 75 mg/kg/day (p.o., q.d., 5 days on, 5 days off ×2)
N-[2-[(4-hydroxyphenyl)amino]-3-pyridyl]-4-methoxybenzenesulfonamide—50 and 0 mg/kg/day (p.o., q.d. ×21 or p.o., b.i.d. ×21)
Cisplaitn—20, 10, 8 and 0 mg/kg/day (ip, qd ×1)
Combination Therapy—100/10, 75/10, 100/8 mg/kg/day (p.o., q.d., 5 days on, 5 days off ×2/ip, qd ×1), 50/10 mg/kg/day (p.o., q.d., ×21/ ip, qd ×1)

[2] = test system: MDA-MB-468 breast subcutaneous flank xenografts; assay: MDA-MB-468 breast flank xenograft model; type: in vivo, female nude mice; settings: for Tumor Volume Day 38: mean ± SEM; for % ILS: median, time to 1 cc vs vehicle; for % T/C Day 38: treated vs vehicle
Method: as §1, §2
Efficacy of N-[2-[(4-hydroxyphenyl)amino]-3-pyridyl]-4-methoxybenzenesulfonamide in the MDA-MB-468 Breast Flank Xenograft Model. Tumor cells derived from serially passaged tumor fragments were inoculated s.c. in female nude mice on day 0. On day 10, mice bearing established tumors were size matched at ˜231 mm^3 and placed into the following groups:
as §3
N-[2-[(4-hydroxyphenyl)amino]-3-pyridyl]-4-methoxybenzenesulfonamide—50 and 0 mg/kg/day (p.o., q.d. ×21)
Docetaxel—40, 33.3, 16.7 and 0 mg/kg/day (i.v., qd ×1)

[3] = 75 mg/kg/day p.o., q.d., (5 days on, 5 days off) x2
[4] = 100 mg/kg/day p.o., q.d., (5 days on, 5 days off) x2

Compound: COc1ccc(S(=O)(=O)Nc2cccnc2Nc2ccc(O)cc2)cc1 [N-[2-[(4-hydroxyphenyl)amino]-3-pyridyl]-4-methoxybenzenesulfonamide]
- Tumor Volume Day 38 ([1]; 50 mg/kg/day p.o., b.i.d x21): 1534 ± 47 mm^3
- % ILS ([1]; 50 mg/kg/day p.o., b.i.d x21): 58*** %
- % T/C Day 38 ([1]; 50 mg/kg/day p.o., b.i.d x21): 56*** %
- Tumor Volume Day 38 ([1]; 50 mg/kg/day p.o., q.d x21): 1455 ± 65 mm^3
- % ILS ([1]; 50 mg/kg/day p.o., q.d x21): 58*** %
- % T/C Day 38 ([1]; 50 mg/kg/day p.o., q.d x21): 54*** %
- Tumor Volume Day 38 [1, 3]: 1406 ± 65 mm^3
- % ILS [1, 3]: 58*** %
- % T/C Day 38 [1, 3]: 50*** %
- Tumor Volume Day 38 [1, 4]: 1022 ± 48 mm^3
- % ILS [1, 4]: 65*** %
- % T/C Day 38 [1, 4]: 37*** %
- antitumor activity as a single agent ([1]; 100 and 75 mg/kg/day, 5 days on, 5 days off for 2 cycles): significant antitumor activity
- efficacy of combination compared to single agents alone (summary) ([1]; in combination with cisplatin): equal to or greater than additive efficacy
- response in combination with cisplatin ([1]; in combination with cisplatin, all three doses tested): greater than additive responses
- efficacy q.d. vs b.i.d. (summary) ([1]; q.d. or b.i.d. for 21 days): equal efficacy
- efficacy as a single agent (summary) ([1]; single agent): dose-dependent efficacy
- Tumor Volume Day 38 ([2]; 50 mg/kg/day p.o., q.d x21): 1244 ± 59 mm^3
- % ILS ([2]; 50 mg/kg/day p.o., q.d x21): 41*** %
- % T/C Day 38 ([2]; 50 mg/kg/day p.o., q.d x21): 46*** %
- Tumor Volume Day 38 [2, 3]: 851 ± 55 mm^3
- % ILS [2, 3]: 52*** %
- % T/C Day 38 [2, 3]: 33*** %
- Tumor Volume Day 38 [2, 4]: 638 ± 48 mm^3
- % ILS [2, 4]: 78*** %
- % T/C Day 38 [2, 4]: 25*** %
- antitumor activity as a single agent ([2]; 100 and 75 mg/kg/day 5 days on, 5 days off for 2 cycles, 50 mg/kg/day daily): dose-dependent antitumor activity
- efficacy of combination compared to single agents alone (summary) ([2]; in combination with docetaxel): equal to or greater than additive efficacy
- response in combination with docetaxel ([2]; in combination with docetaxel at 33.3 mg/kg/day, all three doses tested): greater than additive responses
- efficacy as a single agent (summary) ([2]; single agent): dose-dependent efficacy
